According to a melting point compilation (Tetko et al.; mined from patent text by program, amines drawn as free bases though some values may be those of a salt):

| SMILES | melting point [°C] |
| --- | --- |
| CCCCCCCCCCCCCCCC1Cc2ccc(C(=O)O)cc2N1 (racemic) | 119 to 122 |
| CC(=O)SCC(Cc1ccccc1)C(=O)Nc1cccc(C(=O)O)c1C (stereo unspecified) | 162 to 163 |
| O=C(NOc1ccc([N+](=O)[O-])cc1)OCCCNC(=O)OC1CCN(C(=O)Oc2ccc(Oc3ccccc3)cc2)CC1 | 97 to 100 |
| CC(=O)NC[C@H]1CN(c2ccc(N3CCC4(CC3)COCO4)c(F)c2)C(=O)O1 | 142 to 144 |
| CCOC(=O)Cc1c(C(=O)OCC)[nH]c2ccccc12 | 75 to 78 |
| Cc1nc(C(O)(Cn2cncn2)c2ccc(F)cc2)cs1 (stereo unspecified) | 120 |
| CCNc1cccnc1N1CCN(C(=O)c2ccc(C(=O)OC)cc2)CC1 | 96 to 97 |
| CCOC(=O)/C=C/c1ccc(Cn2ccnc2)c(Cl)c1 | 112 to 114 |
| COc1ccc(CC(Cc2ccccc2)C(=O)O)cc1 (stereo unspecified) | 72 to 76.5 |
| CCOC(CNC1=Nc2sc(CC)cc2C(c2ccccc2Cl)=NC1)OCC | 124 to 127 |
| CCOC(=O)COc1cc2c(c(Cl)c1Cl)C(=O)C(CC)=C2 | 141 to 143 |
| O=C(C=Cc1ccc(C(F)(F)F)cc1)C=Cc1ccc(C(F)(F)F)cc1 | 148 to 150 |
| O=S1(=O)NCN(C2CCCCCCC2)c2cc(Cl)ccc21 | 141 to 143 |
| COc1ccc(NC(=N)c2ccccc2)cc1NC(=O)/C=C/c1ccccc1C(F)(F)F | 208 to 210 |
| CCN1Cc2cccnc2N(c2cccc(C(F)(F)F)c2)C1=O | 155 to 157 |
| COc1cc(N)c(Cl)cc1C(=O)NC1CC2CCCCN2C1 (stereo unspecified) | 192 to 193 |
| CN1CCN(c2cccc3ccc(Nc4ncccc4N)cc23)CC1 | 198 to 200 |
| Nc1ccc(CC(=O)Nc2ccc(Nc3ccccc3)cc2)cc1 | 162 to 163 |
| O=C(O)Cc1cc(C(=O)c2cc(Cl)ccc2Cl)ccc1O | 149 |
| O=S(=O)(Nc1ccc(Cl)cc1-c1cc(-c2ccc(Cl)cc2Cl)on1)C(F)(F)F | 142 to 144 |

| SMILES | melting point [°C] |
| --- | --- |
| CC(C)CN1C(=O)CCC(c2ccccc2Cl)c2ccccc21 (stereo unspecified) | 139 to 140 |
| Clc1ccc(CNc2nc(-c3nccc4ccccc34)nc3ccccc23)cc1 | 221 to 224 |
| CCN(CC)CC#CCNC(=O)C(O)(c1ccccc1)C1CCCCC1 (stereo unspecified) | 102 to 104 |
| CCOC(=O)C(C(=O)OCC)C(=O)C1CCC2C3CCC4CC(O)CCC4(C)C3C(=O)CC12C (stereo unspecified) | 116 to 117 |
| CC(C)=CCn1c(C)cnc1[N+](=O)[O-] | 78 to 79 |
| Cn1nnnc1SCC1=C(C(=O)O)N2C(=O)C(NC(=O)Cn3ccnc3S(C)(=O)=O)C2SC1 (stereo unspecified) | 230 |
| CCCCN(CCCC)Cc1cc(NC(=O)Nc2c(C(C)C)cccc2C(C)C)n(Cc2ccccc2)n1 | 149 to 152 |
| O=C1CCC2=C1C(c1ccc(F)c(I)c1)C1=C(CCS1)N2 (stereo unspecified) | > 250 |
| CCOC(=O)c1cnc(Nc2ccc(-n3cnc(C)c3)c(OC)c2)nc1-c1ccc(Cl)cc1 | 216 to 218 |
| O=C(O)c1ccc(OCCCOc2ccccc2)cc1O | 161 |
| COC(=O)c1cc(Br)c(Br)o1 | 56 to 57 |
| O=C1N(Cc2ccccc2C(F)(F)F)c2ccccc2C12COc1cc3c(cc12)OCCO3 (stereo unspecified) | 137 to 138 |
| O=C(c1ccc(F)cc1)N1CCC[C@H](c2nc(-c3cscn3)no2)C1 | 118 to 120 |
| O=C(O)Cc1ccc(Br)c(O)c1Br | 186 |
| CC(=NNc1ccccc1)c1c(-c2ccccc2)noc1C | 129 to 133 |
| CCOCc1nc2c(N)nc3cccnc3c2n1CC1(O)CCCCC1 | 171 to 173 |
| O=C1c2cc(F)ccc2CCC1CN1CCC2(CC1)C(=O)NCN2c1ccccc1 (stereo unspecified) | 162 to 165 |
| c1c[nH]c(-c2cnco2)c1 | 57 to 58 |
| O=C(NNc1ccc([N+](=O)[O-])cc1)C(F)(F)F | 115 to 117 |
| O=C(O)c1ccc(CN(C(=O)Nc2cc(C(F)(F)F)cc(C(F)(F)F)c2)c2ccc(C3CCCCC3)cc2)cc1 | 148 to 150 |

| SMILES | melting point [°C] |
| --- | --- |
| COc1ccc2ccc3c(c2c1)C=C(C(=O)O)CO3 | 226 |
| Cc1ccc(C)n1C(=O)c1cc2cc(Br)ccc2o1 | 115 to 116 |
| Nc1cc(F)c(Cl)c(Br)c1Cl | 126 to 130 |
| CC(C)COc1c(-c2ccc(S(N)(=O)=O)c(F)c2)cnn(CC(F)(F)F)c1=O | 163 to 164 |
| CCC(C)(C)c1ccc(OCC(=O)Nc2cccc(C(C)=O)c2)c(C(C)(C)CC)c1 | 135 |
| CCS(=O)(=O)CCN1CCCCC1 | 45 to 47 |
| Cc1nc(Nc2cccc(C(F)(F)F)c2)c2ccccc2c1Cc1ccc(Cl)nc1 | 137 |
| CCn1c2ccccc2c2cc([N+](=O)[O-])ccc21 | 118 to 120 |
| COc1ccc(CCNC(=O)CN(C(C)=O)c2cccc(C(N)=O)c2)cc1OC | 111 to 113 |
| CCCN(C(N)=S)c1cccc2ccccc12 | 170 to 171 |
| CCOCN1C(C)=C(C(=O)OCC)C(c2cccc([N+](=O)[O-])c2)C(C(=O)OCCBr)=C1C (stereo unspecified) | 102 to 104 |
| Cc1ccc(C(=O)NC(=O)Nc2cc3c(cc2F)/C(=C/c2[nH]c(C)c(CCC(=O)O)c2C)C(=O)N3)cc1 | 265 to 270 |
| CSC(SC)=C(C#N)C(=O)NC1CCCCC1 | 103 to 105 |
| CN1CC2Cc3cc4c(cc3C(c3ccc([N+](=O)[O-])cc3)=NN2C1=O)OCO4 (stereo unspecified) | 252 to 255 |
| Nc1cccnc1C(=O)NO | 131 to 133 |
| CCNC(=O)Nc1scc(-c2ccccc2)c1C(=O)OCC | 109 to 112 |
| COc1nc(NC(=O)NS(=O)(=O)c2ccccc2S(C)(=O)=O)nc(N(C)C)n1 | 192 to 195 |
| CN(C)[C@H]1CCN(C(=O)c2ccc(Cc3cn(C)c4ccccc34)cc2)C1 | 101 to 105 |
| O=C(O)CCC(NC(=O)c1ccccc1)C(=O)NC(c1ccccc1)c1ccccc1 (stereo unspecified) | 128 |
| CON=C1CN(c2cc3c(cc2F)c(=O)c(C(=O)O)cn3-c2ccc(F)cc2F)CC12CN(C(=O)OC(C)(C)C)C2 | 263 to 264 |

Further lines, results first:

| melting point [°C] | SMILES |
| --- | --- |
| 117 to 119 | CCONC(=O)c1cc(Br)c(Br)s1 |
| 124 to 126 | CCCCCCCCCCCCCCOc1ccc(C(=O)Nc2ccccc2)cc1 |
| 115 to 117 | NC(=S)Nc1ccc(Cl)c(Cl)c1Cl |
| 148 | O=S(=O)(c1ccc(Oc2cncc(Br)c2)cc1)N1CCCC1 |
| 131 to 132 | Cc1cc(S(=O)(=O)N(C)CC(O)(CO)c2cccc(Cl)n2)ccc1Cl (stereo unspecified) |
| 288 to 289 | Oc1ccccc1C=NC1=NN(c2cnc3ccccc3c2)CC1 |
| 62 to 64 | COC(=O)c1scc(Cl)c1N |
| 154 to 156 | O=c1ccccn1CC1(O)CCN(Cc2ccc(F)cc2)CC1 |
| 289 | CCNC(=O)c1ccc(N2CCN(Cc3cnc4c(c3)NC(=O)[C@@H]3CSCCN43)CC2)cc1 |
| 92 to 94 | CC(=O)c1ccc(NS(C)(=O)=O)c(Oc2ccccc2F)c1 |
| 204 to 206 | CCCCc1ncc(/C=C(\Cc2ccccc2)C(=O)O)n1Cc1c(F)cccc1Cl |
| 64 to 70 | CCNC(=O)Nc1nc2nc(NCCCN(C)C)ncc2cc1-c1c(C)cccc1C |
| 227 to 229 | O/N=C1\CCCc2c1c1ccccc1n2-c1ccc(O)cc1 |
| 129 | COC(=O)Nc1cc(F)c(C#N)cc1F |
| 170 to 171 | COc1cccc(NC(=O)NC2N=C(C)c3cccc(C)c3N(CC(=O)N3CC4CCC(CC4)C3)C2=O)c1 (stereo unspecified) |
| > 265 | COc1cc2cc3ncc(C#N)c(Nc4ccc(Oc5ccccc5)cc4)c3cc2cc1OC |
| 142 to 144 | O=c1ccc(Cc2cccnc2)c[nH]1 |
| 202 to 205 | NC(=O)C1CCc2cc(S(=O)(=O)Nc3ccc(-n4nnn(CCCC5CCCC5)c4=O)cc3)ccc2O1 (stereo unspecified) |
| 129 to 130 | CCS(=O)(=O)c1ncc(S(N)(=O)=O)s1 |
| 189 to 190 | CCOC(=O)c1csc(Cc2ccc(NC(=O)/C=C/c3cnn(C)c3-c3ccc(F)cc3)cc2)n1 |
| 242 | CC(C)(C)OC(=O)N1CCN(c2ccc(-c3[nH]nc4c3C(=O)c3c(NC(=O)NN5CCOCC5)cccc3-4)cc2)CC1 |

| melting point [°C] | SMILES |
| --- | --- |
| 38 to 40 | CCCCCCC/C=C/C(=O)NCC |
| 184 to 187 | CCn1cc(C(=O)O)c(=O)c2cc(F)c(C3NCC4CCC3N4C)c(F)c21 (stereo unspecified) |
| 175 to 176 | Oc1ccc2c(c1O)Cc1cccc3c1C2CNC3 (stereo unspecified) |
| 170 to 172 | Cc1ccc(S(=O)(=O)NCCCCCCCCCCCn2c3c(c4ccccc4c2=O)C(=O)c2ccccc2-3)cc1 |
| 183 to 184 | O=C(Nc1ccc2c(c1)CS(=O)(=O)N2)C(=O)N1CCC(Cc2ccc(F)cc2)CC1 |
| 193 to 197 | COC(=O)C(=CC(=CN(C)C)c1ccc(Cl)cc1[N+](=O)[O-])[N+](=O)[O-] |
| 77 to 79 | O=C(O)C1Cc2ccccc2CN1C(=O)c1ccc(Cl)cc1 (stereo unspecified) |
| 164 to 168 | Cc1ccccc1N1CNC(=O)C12CCN(C(=O)c1cc(C(F)(F)F)cc(C(F)(F)F)c1)CC2 |
| 191 to 194 | Cc1cccc2ncc(C(=O)NCC(C)(C)C)c(=O)n12 |
| 68 to 71 | CC(=O)N1CCC2(c3ccccc3)OC2C1 (stereo unspecified) |
| 146 to 148 | CNC(=O)c1c(NC(=O)CCl)c(OC)c(C(=O)NC)c(NC(=O)CCl)c1OC |
| 209 to 215 | O=C(O)Cc1cccc([N+](=O)[O-])c1[N+](=O)[O-] |
| 170 | O=C(/C=C/c1ccc(C(=O)Nc2cccc(Nc3nc(-c4cccnc4)cs3)c2)s1)NOC1CCCCO1 (stereo unspecified) |
| 190 | Cc1cc(O)cc(C)c1Sc1ccccn1 |
| 101 | O=C(O)CC1(CCCCCCCCC2(CC(=O)O)CC2)CC1 |
| 144 to 146 | CC(c1ccc(OC(=O)CCl)cc1)(c1ccc(OC(=O)CCl)cc1)c1ccc(OC(=O)CCl)cc1 |
| 170 | CCOC(=O)C1(C(=O)O)CN(C2CC2)c2nc3cc(N4CC(N)C4C)c(F)cc3cc2C1=O (stereo unspecified) |
| 131 to 133 | c1ccc2c(OCC3CO3)c(OCC3CO3)ccc2c1 (stereo unspecified) |
| 118 to 120 | CC1(C)OC[C@@H](COn2cnc3c(Cl)nc(N)nc32)O1 |
| 247 to 249 | COC(=O)C(=O)Nc1cccc2c1C(=O)N(C1CCC(=O)NC1=O)C2=O (stereo unspecified) |
